According to article PMC5007854, “β-Nitrostyrenes as Potential Anti-leishmanial Agents” (Frontiers in Microbiology, 2016):
≈ marks a conversion by molar mass, not a printed value. Where two headings read alike, the source gives them in different places.

Key:
[1] = tested on: Escherichia coli ATCC 25922; test: Broth microdilution antibacterial susceptibility (MIC/MBC); assay type: cell-based; settings: for MIC / MBC: Escherichia coli; for MIC: ATCC25922, 24 h
Text: (§1) One reference each of the following species was used for their in vitro susceptibility to β-nitrostyrene in this study: Staphylococcus aureus ATCC 29213, Staphylococcus epidermidis ATCC 14990, Escherichia coli ATCC 25922, Pseudomonas aeruginosa ATCC 27853, Candida albicans ATCC 90028, Candida glabrata ATCC 90030, Aspergillus fumigatus ATCC 16424 and Aspergillus niger ATCC 16404. These strains were procured from the American Type Culture Collection (ATCC, Manassas, VA, USA).
(§2) The antibacterial and antifungal activities of the β-nitrostyrenes were performed by broth microdilution methods as per the guidelines of Clinical and Laboratory Standard Institute (Wayne, [1998], [2008a],[b],[c]) by using Mueller-Hinton broth (MHB; Becton-Dickinson, Cockeysville, MD, USA) supplemented with calcium (25 mg/L) and magnesium (12.5 mg/L) for bacterial strains while as RPMI 1640 medium with L-glutamine and without sodium bicarbonate, buffered to pH 7.0 with 0.165 M 3-(N-morpholino) propanesulfonic acid (MOPS; both from Sigma) was used for fungal strains. Stock solutions were prepared in 100% dimethyl sulfoxide (DMSO; Sigma; distilled water was used for ciprofloxacin), with a final DMSO concentration of 1% (vol. per vol.) and two-fold serial dilutions were prepared in media in amounts of 100 μL per well in 96-well U-bottom microtiter plates (Tarsons, Kolkata, India) to yield twice the final concentration required for testing, which ranged from 64 to 0.12 μg/mL for β-nitrostyrenes and 16 to 0.03 μg/mL for ciprofloxacin as well as amphotericin B. Stock inoculum suspensions of the bacteria, Candida species and Aspergillus species were prepared in sterile normal saline (0.85%) containing 0.05% polysorbate 20 (NST) from overnight (3 to 5-day old for Aspergillus species) strains grown on Trypticase soy agar (TSA; Becton-Dickinson) and potato dextrose agar (Difco Laboratories, Detroit, MI, USA) respectively at 35°C. Inocula were verified for each assay by plating onto agar plates for colony enumeration. These suspensions were further diluted in the respective test medium and a 100 μl volume of this diluted inoculum was added to each well of the plate, resulting in a final inoculum concentration of approximately 5 × 10^5 CFU/mL for bacter1ia, (Wayne, [2008a]) approximately 2.5 × 10^4 CFU/ml for Candida species (Pfaller et al., [2004]) while as 0.4 × 10^4 to 5 × 10^4 CFU/mL for Aspergillus species (Wayne, [2008c]). Untreated growth control, vehicle control (DMSO) and sterility control wells were included for each isolate tested. Ciprofloxacin and amphotericin B served as the standard drug controls for bacterial and fungal strains, respectively. The microtiter plates were incubated at 35°C for 24 h for bacterial strains and 48 h for fungal strains. The plates were read visually and the minimum inhibitory concentration (MIC) was defined as the lowest concentration of test sample that prevented visible growth with respect to the growth control.
(§3) The minimum bactericidal concentration (MBC) and minimum fungicidal concentration (MFC) were determined by plating 100 μl volumes on agar plates from the wells showing no visible growth (clear MIC well). The plates were incubated as described above in MIC measurements. […] All experiments were conducted twice in duplicates on separate occasions with freshly prepared inoculums and stock solutions.

[2] = tested on: Pseudomonas aeruginosa ATCC 27853; test: as above; assay type: cell-based; settings: for MIC / MBC: Pseudomonas aeruginosa; for MIC: ATCC27853, 24 h
Text: as §1, §2, §3

[3] = tested on: Staphylococcus aureus ATCC 29213; test: as above; assay type: cell-based; settings: for MIC / MBC: Staphylococcus aureus; for MIC: ATCC29213, 24 h
Text: as §1, §2, §3

[4] = tested on: Staphylococcus epidermidis ATCC 14990; test: as above; assay type: cell-based; settings: for MIC / MBC: Staphylococcus epidermidis; for MIC: ATCC14990, 24 h
Text: as §1, §2, §3

[5] = tested on: Aspergillus fumigatus ATCC 16424; test: Broth microdilution antifungal susceptibility (MIC/MFC); assay type: cell-based; settings: for MIC / MFC: Aspergillus fumigatus; for MIC: ATCC16424, 48 h
Text: as §1, §2, §3

[6] = tested on: Aspergillus niger ATCC 16404; test: as above; assay type: cell-based; settings: for MIC / MFC: Aspergillus niger; for MIC: ATCC16404, 48 h
Text: as §1, §2, §3

[7] = tested on: Candida albicans ATCC 90028; test: as above; assay type: cell-based; settings: for MIC / MFC: Candida albicans; for MIC: ATCC90028, 48 h
Text: as §1, §2, §3

[8] = tested on: Candida glabrata ATCC 90030; test: as above; assay type: cell-based; settings: Nakaseomyces glabratus
Text: as §1, §2, §3

[9] = tested on: L. donovani promastigotes; test: Anti-leishmanial screening at 100 μM, parasite viability by microscopy; assay type: cell-based, Leishmania donovani; settings: 100 μM, 72 h, phase contrast microscope
Protocol: (§4) L. donovani parasites (MHOM/IN/83/AG83) were maintained in vivo in BALB/c mice. Promastigotes were routinely cultured at 22°C in medium M199 supplemented with 10% heat inactivated fetal bovine serum (FBS, HiMedia Laboratories, Mumbai, India), penicillin 100 (IU/ml), streptomycin (100 μg/ml). Log phase promastigotes were sub-cultured every 72–96 h, the inoculum being 2 × 10^6 cells/ml (Afrin et al., [2002]).
Nitrostyrine series were screened for their antileishmanial activity against L. donovani promastigotes in vitro. Promastigotes of L. donovani (2 × 10^6 cells/mL) in M199 medium were incubated at 22°C for 72 h with each compound at a concentration of 100 μM. Amphotericin B (AmB) served as reference drug, 0.2% DMSO was used as solvent control. Parasites with media alone were taken as control. Parasite viability was determined microscopically after 72 h (Islamuddin et al., [2014b]).

[10] = tested on: L. donovani promastigotes; test: Dose-dependent anti-promastigote activity, IC50 and IC90; assay type: cell-based, Leishmania donovani
Protocol: as §4
AmB was used as a standard antileishmanial drug control. The cell viability was evaluated by microscopically and the mean percentage viability was calculated as follows: Mean cell number of treated parasites / Mean cell number of untreated parasites × 100. The 50 and 90% inhibitory concentration (IC50 and IC90) i.e., the concentration of drugs that decreased the cell growth by 50 and 90% respectively was determined by graphical extrapolation after plotting the graph of % viability vs. concentration of drug (Islamuddin et al., [2014b]).
In vitro antileishmanial activity was expressed as IC50 by linear regression analysis. Values are mean ± SE of samples in triplicate from at least three independent experiments. Statistical analysis was performed using ANOVA followed by Dunnett's test. ^*P < 0.05, ^**P < 0.01 and ^***P < 0.001 compared with the untreated control group were considered significant.

[11] = broth microdilution, 35°C, 24 h
[12] = broth microdilution, 35°C, 48 h

SMILES: C/C(=C\c1ccc([N+](=O)[O-])cc1)[N+](=O)[O-] [Compound 8, 1-nitro-4-((E)-2-nitroprop-1-enyl) benzene]
- MIC ([1]; read-out: MIC, Ec ATCC 25922, broth microdilution, 35°C, 24 h): 64 µg/mL (≈ 307 µM)
- MBC ([1]; ATCC25922, read-out: MBC, Ec ATCC 25922): > 64 µg/mL
- MIC ([2]; read-out: MIC, Pa ATCC 27853, broth microdilution, 35°C, 24 h): 64 µg/mL (≈ 307 µM)
- MBC ([2]; ATCC27853, read-out: MBC, Pa ATCC 27853): > 64 µg/mL
- MIC ([3]; read-out: MIC, Sa ATCC 29213, broth microdilution, 35°C, 24 h): 16 µg/mL (≈ 76.9 µM)
- MBC ([3]; ATCC29213, read-out: MBC, Sa ATCC 29213): 32 µg/mL (≈ 154 µM)
- MIC ([4]; read-out: MIC, Se ATCC 14990, broth microdilution, 35°C, 24 h): 16 µg/mL (≈ 76.9 µM)
- MBC ([4]; ATCC14990, read-out: MBC, Se ATCC 14990): 16 µg/mL (≈ 76.9 µM)
- MIC ([5]; read-out: MIC, Af ATCC 16424, broth microdilution, 35°C, 48 h): 4 µg/mL (≈ 19.2 µM)
- MFC ([5]; ATCC16424, read-out: MFC, Af ATCC 16424): 4 µg/mL (≈ 19.2 µM)
- MIC ([6]; read-out: MIC, An ATCC 16404, broth microdilution, 35°C, 48 h): 2 µg/mL (≈ 9.61 µM)
- MFC ([6]; ATCC16404, read-out: MFC, An ATCC 16404): 2 µg/mL (≈ 9.61 µM)
- MIC ([7]; read-out: MIC, Ca ATCC 90028, broth microdilution, 35°C, 48 h): 4 µg/mL (≈ 19.2 µM)
- MFC ([7]; ATCC90028, read-out: MFC, Ca ATCC 90028): 4 µg/mL (≈ 19.2 µM)
- MIC ([8]; ATCC90030, 48 h, read-out: MIC, Cg ATCC 90030, broth microdilution, 35°C, 48 h): 1 µg/mL (≈ 4.8 µM)
- MFC ([8]; ATCC90030, read-out: MFC, Cg ATCC 90030): 1 µg/mL (≈ 4.8 µM)
- Parasite viability after treatment [9]: All the parasites were found to be dead
- melting point: 114 to 116 °C

SMILES: C/C(=C\c1ccc(O)cc1)[N+](=O)[O-] [Compound 17, 4-((E)-2-nitroprop-1-enyl) phenol]
- MIC ([1]; broth microdilution, 35°C, 24 h, read-out: MIC, Ec ATCC 25922): 16 to 32 µg/mL (≈ 89.3 to 179 µM)
- MBC ([1]; ATCC25922, ≥99.9% reduction of original inoculum, read-out: MBC, Ec ATCC 25922): 16 µg/mL (≈ 89.3 µM)
- MIC, Ec ATCC 25922 [1, 11]: 16 µg/mL (≈ 89.3 µM)
- MIC ([2]; broth microdilution, 35°C, 24 h, read-out: MIC, Pa ATCC 27853): 16 to 32 µg/mL (≈ 89.3 to 179 µM)
- MBC ([2]; ATCC27853, ≥99.9% reduction of original inoculum, read-out: MBC, Pa ATCC 27853): 32 µg/mL (≈ 179 µM)
- MIC, Pa ATCC 27853 [2, 11]: 16 µg/mL (≈ 89.3 µM)
- MIC ([3]; broth microdilution, 35°C, 24 h, read-out: MIC, Sa ATCC 29213): 2 to 32 µg/mL (≈ 11.2 to 179 µM)
- MBC ([3]; ATCC29213, ≥99.9% reduction of original inoculum, read-out: MBC, Sa ATCC 29213): 4 µg/mL (≈ 22.3 µM)
- MIC, Sa ATCC 29213 [3, 11]: 4 µg/mL (≈ 22.3 µM)
- MIC ([4]; broth microdilution, 35°C, 24 h, read-out: MIC, Se ATCC 14990): 2 to 16 µg/mL (≈ 11.2 to 89.3 µM)
- MBC ([4]; ATCC14990, ≥99.9% reduction of original inoculum, read-out: MBC, Se ATCC 14990): 2 µg/mL (≈ 11.2 µM)
- MIC, Se ATCC 14990 [4, 11]: 2 µg/mL (≈ 11.2 µM)
- MIC ([5]; broth microdilution, 35°C, 48 h, read-out: MIC, Af ATCC 16424): 4 to 8 µg/mL (≈ 22.3 to 44.6 µM)
- MFC ([5]; ATCC16424, ≥99.9% reduction of original inoculum, read-out: MFC, Af ATCC 16424): 8 µg/mL (≈ 44.6 µM)
- MIC, Af ATCC 16424 [5, 12]: 8 µg/mL (≈ 44.6 µM)
- MIC ([6]; broth microdilution, 35°C, 48 h, read-out: MIC, An ATCC 16404): 2 to 4 µg/mL (≈ 11.2 to 22.3 µM)
- MFC ([6]; ATCC16404, ≥99.9% reduction of original inoculum, read-out: MFC, An ATCC 16404): 4 µg/mL (≈ 22.3 µM)
- MIC, An ATCC 16404 [6, 12]: 4 µg/mL (≈ 22.3 µM)
- MIC ([7]; broth microdilution, 35°C, 48 h, read-out: MIC, Ca ATCC 90028): 4 to 32 µg/mL (≈ 22.3 to 179 µM)
- MFC ([7]; ATCC90028, ≥99.9% reduction of original inoculum, read-out: MFC, Ca ATCC 90028): 8 µg/mL (≈ 44.6 µM)
- MIC, Ca ATCC 90028 [7, 12]: 8 µg/mL (≈ 44.6 µM)
- MFC ([8]; ATCC90030, ≥99.9% reduction of original inoculum, read-out: MFC, Cg ATCC 90030): 8 µg/mL (≈ 44.6 µM)
- Parasite viability after treatment [9]: All the parasites were found to be dead
- Anti-leishmanial activity, in words (compounds with IC50 determined) ([10]; L. donovani promastigotes): moderately active
- IC50 ([10]; Leishmania donovani, 72 h, 22°C, values given in μM, read-out: IC50 against promastigotes): 39.4 ± 1.36 µM
- melting point: 122 to 124 °C
